Measurements reported in ChEMBL document CHEMBL5528049, “Discovery of (4-Pyrazolyl)-2-aminopyrimidines as Potent and Selective Inhibitors of Cyclin-Dependent Kinase 2” (J Med Chem, 2024).

Tests used:
[1] = Solubility of compound in SGF by HPLC analysis
[2] = Intrinsic clearance in human liver microsomes at 1 uM measured upto 30 mins by LC/MS analysis; assay type: ADME, Microsome; settings: read-out: CLH (converted)
[3] = Apparent permeability from apical to basolateral side in human Caco-2 cells at 50 uM incubated for 120 mins by LCMS analysis
[4] = Protein binding in human plasma assessed as free fraction incubated for 2 hrs by LC-MS/MS analysis; assay type: ADME, cell-free
[5] = AUC in Sprague-Dawley rat at 3 mg/kg, po administered as cassette dose and measured upto 24 hrs by LC-MS/MS analysis; assay type: ADME, organism-based; settings: in vivo
[6] = Cmax in Sprague-Dawley rat at 3 mg/kg, po administered as cassette dose and measured upto 24 hrs by LC-MS/MS analysis; assay type: ADME, organism-based; settings: in vivo
[7] = Oral bioavailability in Sprague-Dawley rat at 3 mg/kg administered as cassette dose and measured upto 24 hrs by LC-MS/MS analysis; assay type: ADME, organism-based; settings: in vivo
[8] = Hepatic blood flow in Sprague-Dawley rat at 0.5 mg/kg, iv administered as cassette dose and measured upto 24 hrs by LC-MS/MS analysis; assay type: ADME, organism-based; settings: in vivo
[9] = Half-life in Sprague-Dawley rat at 0.5 mg/kg, iv administered as cassette dose and measured upto 24 hrs by LC-MS/MS analysis; assay type: ADME, organism-based; settings: in vivo
[10] = Volume of distribution at steady state in Sprague-Dawley rat at 0.5 mg/kg, iv administered as cassette dose and measured upto 24 hrs by LC-MS/MS analysis; assay type: ADME, organism-based; settings: in vivo, read-out: Vdss
[11] = AUC in cynomolgus monkey at 2 mg/kg, po administered as cassette dose and measured upto 24 hrs by LC-MS/MS analysis; assay type: ADME, organism-based, Macaca fascicularis; settings: in vivo
[12] = Cmax in cynomolgus monkey at 2 mg/kg, po administered as cassette dose and measured upto 24 hrs by LC-MS/MS analysis; assay type: ADME, organism-based, Macaca fascicularis; settings: in vivo
[13] = Oral bioavailability in cynomolgus monkey at 2 mg/kg administered as cassette dose and measured upto 24 hrs by LC-MS/MS analysis; assay type: ADME, organism-based, Macaca fascicularis; settings: in vivo
[14] = Hepatic blood flow in cynomolgus monkey at 0.3 mg/kg, iv administered as cassette dose and measured upto 24 hrs by LC-MS/MS analysis; assay type: ADME, organism-based, Macaca fascicularis; settings: in vivo
[15] = Half-life in cynomolgus monkey at 0.3 mg/kg, iv administered as cassette dose and measured upto 24 hrs by LC-MS/MS analysis; assay type: ADME, organism-based, Macaca fascicularis; settings: in vivo
[16] = Volume of distribution at steady state in cynomolgus monkey at 0.3 mg/kg, iv administered as cassette dose and measured upto 24 hrs by LC-MS/MS analysis; assay type: ADME, organism-based, Macaca fascicularis; settings: in vivo, read-out: Vdss
[17] = In vivo inhibition of CDK2 in athymic nude mouse assessed as reduction in retinoblastoma protein phosphorylation at 30 mg/kg, po administered once daily for 5 days and measured after 24 hrs relative to control; assay type: functional; settings: 144 h, time 6 day
[18] = Drug concentration in athymic nude mouse plasma at 30 mg/kg, po administered as […] for 5 days and measured after 24 hrs; assay type: ADME, organism-based; settings: in vivo, 144 h, BLD = below limit of detection, time 6 day
OVCAR-3 = assay: Antitumor activity against human OVCAR-3 cells xenografted in athymic nude mouse assessed as tumor growth inhibition at 30 mg/kg, po administered once daily for 28 days relative to control; assay type: functional; settings: OVCAR-3, 672 h, time 28 day, read-out: TGI
[19] = Toxicity in athymic nude mouse xenografted with human OVCAR-3 cells assessed as animal death at 30 mg/kg, po administered once daily for 28 days; assay type: organism-based; settings: in vivo, 672 h, time 28 day
[20] = Toxicity in athymic nude mouse xenografted with human OVCAR-3 cells assessed as adverse effect at 30 mg/kg, po administered once daily for 28 days; assay type: organism-based; settings: in vivo, 672 h, time 28 day
[21] = Toxicity in athymic nude mouse xenografted with human OVCAR-3 cells assessed as body weight loss at 30 mg/kg, po administered once daily for 28 days; assay type: organism-based; settings: in vivo, 672 h, time 28 day
Cytochrome P450 2D6 = Cytochrome P450 2D6 (Homo sapiens, UniProt P10635); assay: Inhibition of CYP2D6 in human liver microsomes using bufuralol as substrate in presence of NADPH by LC-MS/MS analysis; assay type: ADME, Microsome
Cytochrome P450 2D6, sequence (P10635 whole entry): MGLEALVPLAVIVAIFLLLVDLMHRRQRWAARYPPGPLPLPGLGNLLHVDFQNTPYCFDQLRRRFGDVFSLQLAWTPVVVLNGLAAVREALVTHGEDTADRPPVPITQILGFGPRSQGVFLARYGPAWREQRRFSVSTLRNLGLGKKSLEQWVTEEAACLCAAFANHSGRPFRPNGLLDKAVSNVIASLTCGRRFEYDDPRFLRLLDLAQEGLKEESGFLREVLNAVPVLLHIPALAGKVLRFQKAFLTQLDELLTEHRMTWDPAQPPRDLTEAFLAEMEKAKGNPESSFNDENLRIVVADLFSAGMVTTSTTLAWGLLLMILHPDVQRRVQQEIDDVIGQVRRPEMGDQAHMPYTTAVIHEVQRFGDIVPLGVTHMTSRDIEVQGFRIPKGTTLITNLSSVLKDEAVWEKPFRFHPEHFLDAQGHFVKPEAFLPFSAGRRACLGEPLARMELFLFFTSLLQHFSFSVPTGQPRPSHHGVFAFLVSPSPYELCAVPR

Cytochrome P450 3A4 = Cytochrome P450 3A4 (Homo sapiens, UniProt P08684); assay: Inhibition of CYP3A4 in human liver microsomes using midazolam/testosterone as substrate in presence of NADPH by LC-MS/MS analysis; assay type: ADME, Microsome
Cytochrome P450 3A4, sequence (P08684 whole entry): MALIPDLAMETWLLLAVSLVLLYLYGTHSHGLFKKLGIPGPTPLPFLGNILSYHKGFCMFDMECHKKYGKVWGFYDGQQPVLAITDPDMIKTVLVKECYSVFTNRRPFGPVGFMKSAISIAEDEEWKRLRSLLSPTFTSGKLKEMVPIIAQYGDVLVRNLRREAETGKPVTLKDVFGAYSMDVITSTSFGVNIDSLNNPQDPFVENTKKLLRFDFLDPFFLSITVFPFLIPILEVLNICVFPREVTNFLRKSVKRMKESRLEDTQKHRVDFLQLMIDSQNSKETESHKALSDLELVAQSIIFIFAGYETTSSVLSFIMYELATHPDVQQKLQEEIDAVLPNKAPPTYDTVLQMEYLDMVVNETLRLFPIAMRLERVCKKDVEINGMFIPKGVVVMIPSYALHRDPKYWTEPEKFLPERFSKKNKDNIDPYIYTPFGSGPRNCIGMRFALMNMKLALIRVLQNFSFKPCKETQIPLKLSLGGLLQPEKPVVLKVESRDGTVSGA

Cytochrome P450 2C9 = Cytochrome P450 2C9 (Homo sapiens, UniProt P11712); assay: Inhibition of CYP2C9 in human liver microsomes using diclofenac as substrate in presence of NADPH by LC-MS/MS analysis; assay type: ADME, Microsome
Cytochrome P450 2C9, sequence (P11712 whole entry): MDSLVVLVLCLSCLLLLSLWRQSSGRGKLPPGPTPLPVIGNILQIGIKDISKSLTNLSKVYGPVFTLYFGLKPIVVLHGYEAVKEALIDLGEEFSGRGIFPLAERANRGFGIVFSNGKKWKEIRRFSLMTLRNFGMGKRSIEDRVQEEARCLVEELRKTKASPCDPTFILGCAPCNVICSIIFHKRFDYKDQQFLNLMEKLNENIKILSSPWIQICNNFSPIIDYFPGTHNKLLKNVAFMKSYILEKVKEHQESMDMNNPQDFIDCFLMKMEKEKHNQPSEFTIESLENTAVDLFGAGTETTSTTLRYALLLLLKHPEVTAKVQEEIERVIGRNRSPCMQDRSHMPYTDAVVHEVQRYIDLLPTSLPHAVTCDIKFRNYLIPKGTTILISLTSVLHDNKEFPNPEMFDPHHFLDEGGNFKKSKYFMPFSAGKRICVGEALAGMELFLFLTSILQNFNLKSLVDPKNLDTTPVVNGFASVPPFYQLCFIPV

Cytochrome P450 2C8 = target: T1, Cytochrome P450 2C8 (Homo sapiens, UniProt P10632); assay: Inhibition of CYP2C8 in human liver microsomes using amodiaquine as substrate in presence of NADPH by LC-MS/MS analysis; assay type: ADME, Microsome
T1 sequence (P10632 whole entry): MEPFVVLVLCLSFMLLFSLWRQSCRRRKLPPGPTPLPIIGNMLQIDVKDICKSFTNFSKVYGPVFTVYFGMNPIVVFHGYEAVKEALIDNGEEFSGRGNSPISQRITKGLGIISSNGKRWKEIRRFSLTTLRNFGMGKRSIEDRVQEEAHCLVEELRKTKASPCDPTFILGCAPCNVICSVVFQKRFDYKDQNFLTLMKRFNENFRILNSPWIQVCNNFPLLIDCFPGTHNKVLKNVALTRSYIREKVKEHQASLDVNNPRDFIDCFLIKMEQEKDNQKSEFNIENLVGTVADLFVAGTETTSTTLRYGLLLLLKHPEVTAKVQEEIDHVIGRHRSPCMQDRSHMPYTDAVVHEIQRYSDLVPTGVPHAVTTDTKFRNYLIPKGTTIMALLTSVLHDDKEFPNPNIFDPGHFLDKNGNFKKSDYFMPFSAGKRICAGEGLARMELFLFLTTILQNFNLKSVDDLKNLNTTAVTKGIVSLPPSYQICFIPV

Cytochrome P450 2C19 = Cytochrome P450 2C19 (Homo sapiens, UniProt P33261); assay: Inhibition of CYP2C19 in human liver microsomes using S-mephenytoin as substrate in presence of NADPH by LC-MS/MS analysis; assay type: ADME, Microsome
Cytochrome P450 2C19, sequence (P33261 whole entry): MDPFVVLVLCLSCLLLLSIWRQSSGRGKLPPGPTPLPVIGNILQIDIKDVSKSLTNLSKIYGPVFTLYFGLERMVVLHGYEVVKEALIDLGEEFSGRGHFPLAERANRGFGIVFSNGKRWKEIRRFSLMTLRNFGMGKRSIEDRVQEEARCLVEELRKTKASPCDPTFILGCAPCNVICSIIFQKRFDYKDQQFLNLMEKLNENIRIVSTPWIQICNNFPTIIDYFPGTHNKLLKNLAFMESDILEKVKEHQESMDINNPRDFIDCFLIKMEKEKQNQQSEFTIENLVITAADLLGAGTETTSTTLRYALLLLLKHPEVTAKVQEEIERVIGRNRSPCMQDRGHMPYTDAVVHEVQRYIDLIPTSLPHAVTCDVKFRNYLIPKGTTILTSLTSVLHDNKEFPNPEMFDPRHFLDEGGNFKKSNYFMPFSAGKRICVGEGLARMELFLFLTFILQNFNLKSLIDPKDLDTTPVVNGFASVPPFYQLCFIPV

Cytochrome P450 2B6 = target: T2, Cytochrome P450 2B6 (Homo sapiens, UniProt P20813); assay: Inhibition of CYP2B6 in human liver microsomes using bupropion as substrate in presence of NADPH by LC-MS/MS analysis; assay type: ADME, Microsome
T2 sequence (P20813 whole entry): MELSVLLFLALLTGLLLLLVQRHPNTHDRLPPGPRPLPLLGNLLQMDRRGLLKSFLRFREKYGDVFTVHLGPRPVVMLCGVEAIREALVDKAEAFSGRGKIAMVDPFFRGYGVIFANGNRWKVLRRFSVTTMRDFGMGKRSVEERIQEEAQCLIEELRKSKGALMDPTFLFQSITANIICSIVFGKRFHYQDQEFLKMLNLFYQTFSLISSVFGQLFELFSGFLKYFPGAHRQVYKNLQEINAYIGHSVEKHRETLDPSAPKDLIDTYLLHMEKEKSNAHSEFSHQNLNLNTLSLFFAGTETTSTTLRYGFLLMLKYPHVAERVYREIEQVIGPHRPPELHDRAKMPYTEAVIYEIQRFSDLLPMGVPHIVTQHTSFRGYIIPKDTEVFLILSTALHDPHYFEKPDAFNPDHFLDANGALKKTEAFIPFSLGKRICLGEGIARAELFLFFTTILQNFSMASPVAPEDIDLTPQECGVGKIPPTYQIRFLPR

Cytochrome P450 1A2 = target: T3, Cytochrome P450 1A2 (Homo sapiens, UniProt P05177); assay: Inhibition of CYP1A2 in human liver microsomes using 7-ethoxyresorufin as substrate in presence of NADPH by LC-MS/MS analysis; assay type: ADME, Microsome
T3 sequence (P05177 whole entry): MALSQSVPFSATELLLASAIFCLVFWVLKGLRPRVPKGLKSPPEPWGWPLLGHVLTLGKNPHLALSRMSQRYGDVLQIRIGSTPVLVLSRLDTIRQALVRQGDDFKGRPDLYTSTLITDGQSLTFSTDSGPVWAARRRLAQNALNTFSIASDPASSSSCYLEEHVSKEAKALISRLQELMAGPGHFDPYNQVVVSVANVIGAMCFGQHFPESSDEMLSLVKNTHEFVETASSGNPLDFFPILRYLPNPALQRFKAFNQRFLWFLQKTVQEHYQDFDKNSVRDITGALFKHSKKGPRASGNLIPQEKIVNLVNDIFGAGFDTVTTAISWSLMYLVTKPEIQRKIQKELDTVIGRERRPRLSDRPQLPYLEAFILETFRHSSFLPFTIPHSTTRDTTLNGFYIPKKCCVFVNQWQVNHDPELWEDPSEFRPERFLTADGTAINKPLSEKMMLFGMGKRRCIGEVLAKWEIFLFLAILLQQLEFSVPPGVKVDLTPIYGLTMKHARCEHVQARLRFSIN

hERG (KCNH2) = hERG (KCNH2) (Homo sapiens, UniProt Q12809); assay: Inhibition of human ERG at 10 uM by patch clamp method relative to control; assay type: toxicity
hERG (KCNH2), sequence (Q12809 whole entry): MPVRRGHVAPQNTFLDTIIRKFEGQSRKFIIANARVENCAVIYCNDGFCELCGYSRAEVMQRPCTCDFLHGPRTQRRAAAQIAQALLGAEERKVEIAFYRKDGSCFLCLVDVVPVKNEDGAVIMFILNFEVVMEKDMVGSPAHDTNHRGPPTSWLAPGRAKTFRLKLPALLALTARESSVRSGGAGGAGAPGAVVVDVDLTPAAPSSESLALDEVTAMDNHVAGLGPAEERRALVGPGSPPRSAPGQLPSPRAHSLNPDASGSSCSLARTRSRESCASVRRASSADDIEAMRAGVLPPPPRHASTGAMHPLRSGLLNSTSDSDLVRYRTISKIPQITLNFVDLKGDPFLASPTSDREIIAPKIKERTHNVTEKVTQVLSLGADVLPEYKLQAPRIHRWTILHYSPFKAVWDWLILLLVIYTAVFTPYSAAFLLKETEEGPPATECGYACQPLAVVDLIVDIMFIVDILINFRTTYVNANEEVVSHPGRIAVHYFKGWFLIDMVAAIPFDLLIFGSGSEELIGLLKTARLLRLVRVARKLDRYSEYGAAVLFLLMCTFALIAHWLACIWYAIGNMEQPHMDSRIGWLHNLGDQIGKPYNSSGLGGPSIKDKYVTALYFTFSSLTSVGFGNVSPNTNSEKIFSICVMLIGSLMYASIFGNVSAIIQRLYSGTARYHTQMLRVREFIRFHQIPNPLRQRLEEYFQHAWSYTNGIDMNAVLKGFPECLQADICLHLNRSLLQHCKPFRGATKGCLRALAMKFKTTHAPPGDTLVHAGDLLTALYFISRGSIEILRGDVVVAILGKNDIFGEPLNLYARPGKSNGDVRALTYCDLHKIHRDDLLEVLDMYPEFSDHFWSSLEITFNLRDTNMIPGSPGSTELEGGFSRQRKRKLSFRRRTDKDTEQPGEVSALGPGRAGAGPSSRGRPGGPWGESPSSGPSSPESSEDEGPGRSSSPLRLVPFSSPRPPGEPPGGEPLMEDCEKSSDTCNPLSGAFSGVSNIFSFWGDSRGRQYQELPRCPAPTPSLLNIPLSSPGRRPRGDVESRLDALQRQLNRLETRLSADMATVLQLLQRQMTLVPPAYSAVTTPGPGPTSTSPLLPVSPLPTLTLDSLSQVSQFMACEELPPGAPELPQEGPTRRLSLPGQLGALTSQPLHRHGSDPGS

**Q.** Which results are given for `CC(C)(O)Cn1cc(-c2nc(NC3CCN(S(=O)(=O)C4CC4)CC3)ncc2C(F)(F)F)cn1`?
**A.** solubility [1]: > 400 µg/mL; CLint scaled at 1 µM [2]: 8.33 mL/min/kg; Papp A→B at 2 h, 50 µM [3]: 13 ×10⁻⁶ cm/s; fraction unbound at 2 h [4]: 0.12; AUC at 24 h [5]: 0.751 µM·h; Cmax [6]: 757 nM; bioavailability [7]: 51%; QH [8]: 130%; half-life [9]: 2 h; Vd [10]: 1.8 L/kg; AUC at 24 h [11]: 5.65 µM·h; Cmax [12]: 962 nM; bioavailability [13]: 21%; QH [14]: 9%; half-life [15]: 2.6 h; Vd [16]: 0.4 L/kg; inhibition in vivo at 30 mg/kg [17]: ~50%; Cp [18]: Bld; inhibition in vivo at 30 mg/kg (OVCAR-3): 38%; Activity [19]: Non-Toxic; Activity [20]: Non-Toxic; Activity [21]: Non-Toxic; IC50 (Cytochrome P450 2D6): > 25 µM; IC50 (Cytochrome P450 3A4): > 25 µM; IC50 (Cytochrome P450 2C9): > 25 µM; IC50 (Cytochrome P450 2C8): > 25 µM; IC50 (Cytochrome P450 2C19): > 25 µM; IC50 (Cytochrome P450 2B6): > 25 µM; IC50 (Cytochrome P450 1A2): > 25 µM; inhibition at 10 µM (hERG (KCNH2)): 6.6%
